For this test, the system named is synchronized Pf3D7 strain cultures (rings, trophozoites). In words: Stage-specificity and parasitemia titres on synchronized Pf3D7 cultures (Giemsa smears). Format: cell-based, Plasmodium falciparum. Conditions: for effect on ring stage parasitemia: 6 hours post exposure of ring stages; for effect on ring stage parasitemia / effect on mature blood stage parasite titres (parasitemia): Fig. 5; for effect on mature blood stage parasite titres (parasitemia): 16 hours after incubation with trophozoite stage; for effect on progression from trophozoites to schizonts / schizont morphology: concentration = individual IC50, up to 16 hours exposure; for effect on ring-stage growth and morphology: newly synchronized rings, concentration = individual IC50, monitored at 6 and 12 hours. As to the method:
Next, we sought to determine stage-specificity of the antiplasmodial activity of the four active analogues (6a, 6h, 6m and 6u) on synchronized Pf3D7 strain cultures at 2% hematocrit and 1% parasitemia, with concentrations corresponding to individual drug IC50. To determine the effect of the compounds on both early and late ring stage parasites, the treatment was conducted on newly synchronized rings for 12 hours, and drug effect on parasite growth and morphology was monitored at 6 and 12 hours after exposure. Similarly, early trophozoites were exposed to each compound and incubated for 16 hours, and monitored at 6 and 16 hours post-exposure. The effect of the compounds on parasite morphology and development was compared in exposed and unexposed drug wells (Figs 3 and 4).
Figure 5 Effect of Pht analogues on parasite growth titres (Note: Graphical description of the inhibitory effect of select analogues on parasite growth titres 6 hours after incubation with ring-stages and 16 hours after drug incubation with trophozoite stage. Parasitemia percentage was derived by counting the number of infected erythrocytes from a total of 2,000 erythrocytes on Giemsa stained thin smears from each experiment. Bar diagrams represent the average of three different experiments).

Each structure is given as a SMILES string.

With `CC[C@@H](C)[C@H](c1nc2ccccc2n1Cc1cn(-c2ccc(F)cc2)nn1)N1C(=O)c2ccccc2C1=O` [Compound 6h], the “effect on ring stage parasitemia” value is listed as “did not affect parasite growth”; the “effect on mature blood stage parasite titres (parasitemia)” value is on record as “reduction in parasitemia”; the “effect on ring-stage growth and morphology” value is given as “did not arrest ring-stage maturation”. For the same molecule, the effect on trophozoites result (early trophozoites, concentration = individual IC50, 6 hours after exposure) was “complete destruction of trophozoites”. For the same molecule, for the setting “early trophozoites”, the “effect on progression from trophozoites to schizonts / schizont morphology” value is “presence of schizonts with abnormal morphology”.

As to `CC(C)C[C@H](c1nc2ccccc2n1Cc1c[nH]nn1)N1C(=O)c2ccccc2C1=O` [Compound 6u], the “effect on ring stage parasitemia” value is given as “reduction in ring stage parasitemia”; the “effect on mature blood stage parasite titres (parasitemia)” value was “negligible”; the “effect on ring-stage growth and morphology” value is given as “active against ring-stage forms”. Moreover, where the note is “early trophozoites”, the “effect on progression from trophozoites to schizonts / schizont morphology” value is recorded as “did not interfere with development of parasite progression from trophozoites to schizonts”.

Source of the values: paper PMC5532363, “Synergistic blending of high-valued heterocycles inhibits growth of Plasmodium falciparum in culture and P. berghei infection in mouse model” (Scientific Reports, 2017).
